Data reported in US20220331333A1, “RHOA PATHWAY INHIBITOR IN THE TREATMENT OF NEURODEVELOPMENTAL DISORDER OR NEUROPSYCHIATRIC DISORDER” (UNIVERSITE DE STRASBOURG, priority 2021, published 2022).

What was measured:
Kctd13^+/− mouse model [1] = experiment: Novel object recognition (NOR) test after chronic fasudil treatment, Kctd13+/− line; type: in vivo; settings: Kctd13+/− mice, 100 mg/kg/day orally in drinking water, tested at 19 weeks, 3 h retention delay
Description: (§1) In this study, the inventors developed a protocol for a pre-clinical treatment (FIG. 1) with the drug fasudil hydrochloride or HA1077 ([…], LC laboratories Boston, Mass., USA). […] Animal bedding was changed once a week. At 11 weeks, animals were transferred from the animal facility to the phenotyping area. The temperature was kept at 21±2° C., and the light cycle was controlled as 12 h light and 12 h dark. At 12 weeks of age, three independent cohorts of mice for each line, with wild-type (wt) and mutant littermates, were subjected to a battery of behavioral tests (see below) for 2 weeks. […] The dose was estimated to 152.7 mg in feeding bottle (250 ml) changed twice a week considering the previous study in which the drinking volume was evaluated to about 4.6 ml/day/mouse. […] During each session the exploration activity was analyzed by measuring the total distance travelled, evaluated the adaptation of the mice to the environment over time, by splitting the data in intervals of 10 minutes and assessed the vertical activity through the number of rears. […] The exploration time of both objects A was recorded. […] The exploration time of the two objects (familiar object and novel object) was recorded. […] Data from behavioral characterization of Kctd13^+/- and 16p11.2 Del/+ mouse models were analyzed through the Student t-test (see supplementary table 1 and table 2 as a summary). […]

RHOA [2] = experiment: Western blot of RHOA in hippocampal lysates, 16p11.2 Del/+ line; type: in vivo, mouse; settings: fasudil for 6 weeks, 18-week-old mice
Description: (§2) At 12 weeks of age, three independent cohorts of mice for each line, with wild-type (wt) and mutant littermates, were subjected to a battery of behavioral tests (see below) for 2 weeks. Then, 14 weeks old mice were randomly divided into 2 groups: one treated with fasudil administrated orally ad libitum in drinking water to reach a dose of 100 mg/kg/day and a second with no treatment. The dose was estimated to 152.7 mg in feeding bottle (250 ml) changed twice a week considering the previous study in which the drinking volume was evaluated to about 4.6 ml/day/mouse. […]
(§3) Fresh hippocampal tissues were isolated by rapid decapitation/dissection of naive mice and snap frozen. […] Protein concentration was determined by Pierce™ BCA Protein Assay Kit (23225, Thermo Fisher Scientific, Strasbourg). […] Total levels of RHOA protein and Myosin Light Chain phosphorylation by Myosin Light Chain Kinase via RHOA pathway were analyzed using Western Blot. […] Signals were quantified using ImageJ and analyzed using Microsoft Excel and GraphPad Prism. […] The ratio of protein level or phosphorylation level against control β-actin protein level (detected with a mouse monoclonal Anti-βActin-Peroxidase antibody (A3854 Sigma)) was normalized to untreated wt sample mean. […]

RHOA [3] = experiment: Western blot of RHOA in hippocampal lysates, Kctd13+/− line; type: in vivo, mouse; settings: fasudil for 6 weeks, 18-week-old mice
Description: as §2, §3

[4] = system: phosphorylated form of MLC (P-MLC); experiment: Western blot of phosphorylated MLC in hippocampal lysates, Kctd13+/− line; type: in vivo, mouse; settings: Kctd13+/− mutant mice, fasudil for 6 weeks, 18-week-old mice
Description: as §2, §3

[5] = system: 16p11.2 Del/+ mouse model; experiment: Open field test after chronic fasudil treatment, 16p11.2 Del/+ line; type: in vivo; settings: 16p11.2 Del/+ and wt littermates, 100 mg/kg/day orally in drinking water, 4 weeks
Description: as §1

Kctd13^+/− mouse model [6] = experiment: Open field test after chronic fasudil treatment, Kctd13+/− line; type: in vivo; settings: Kctd13+/− and wt littermates, 100 mg/kg/day orally in drinking water, 4 weeks
Description: as §1

[7] = system: phosphorylated form of MLC (P-MLC); experiment: Western blot of phosphorylated MLC in hippocampal lysates, 16p11.2 Del/+ line; type: in vivo, mouse; settings: fasudil for 6 weeks, 18-week-old mice
Description: as §2, §3

[8] = system: 16p11.2 Del/+ mouse model; experiment: Novel object recognition (NOR) test after chronic fasudil treatment, 16p11.2 Del/+ line; type: in vivo; settings: 16p11.2 Del/+ mice, 100 mg/kg/day orally in drinking water, tested at 19 weeks, 3 h retention delay
Description: as §1

O=S(=O)(c1cccc2cnccc12)N1CCCNCC1 [fasudil, hexahydro-1-(5-isoquinolinesulfonyl)-1H-1,4-diazepine]
novel object recognition (recognition index vs 50% chance level) (Kctd13^+/− mouse model [1]): significantly improved the NOR defect | RHOA protein levels in hippocampus (RHOA [2]): did not cause changes in RHOA protein levels | RHOA protein levels in hippocampus (RHOA [3]): did not cause changes in RHOA protein levels | MLC phosphorylation levels in hippocampus [4]: reduced MLC phosphorylation levels | vertical activity (number of rears) in open field [5]: did not have effect on any genotype for the vertical activity | locomotor exploration activity (total distance travelled) in open field ([5]; treated vs non-treated): did not change the locomotor exploration activity | vertical activity (number of rears) in open field (Kctd13^+/− mouse model [6]): did not have effect on any genotype for the vertical activity | locomotor exploration activity (total distance travelled) in open field (Kctd13^+/− mouse model [6]; treated vs non-treated): did not change the locomotor exploration activity | MLC phosphorylation levels in hippocampus ([7]; 16p11.2 Del/+ mutant mice): restored a normal MLC phosphorylation | MLC phosphorylation levels in hippocampus ([7]; wt littermates of the 16p11.2 Del/+ line): induced increased MLC phosphorylation in wt mice | novel object recognition (recognition index vs 50% chance level) [8]: significantly improved the NOR defect
